Laboratory results from US20240025863A1, “SOS1 PROTEIN DEGRADERS, PHARMACEUTICAL COMPOSITIONS THEREOF, AND THEIR THERAPEUTIC APPLICATIONS” (BioTheryX, Inc., priority 2020, published 2024).

What was measured:
Type in all cases: cell-based
[1] = test system: SW480 cells (G12V); experiment: Cell viability assay (CellTiter-Glo), SW480 cells; conditions: Homo sapiens, 72 h; SW480 cells, 3 days incubation, CellTiter-Glo luminescence; read-out: Inhibition of Cancerous Cells IC50 SW480 (G12V)
Procedure, shortened: (§1)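 Cells were plated in their growth medium (RPMI 1640 for H358 and SW48, DMEM for Lovo and SW480) with 2.5% FBS, then exposed to compound or DMSO for 3 days at 37 °C, 5% CO2. Viability was read as CellTiter-Glo luminescence after 10 min shaking.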

[2] = test system: SW48 cells (wt); experiment: Cell viability assay (CellTiter-Glo), SW48 cells; conditions: Homo sapiens, 72 h; SW48 cells, 3 days incubation, CellTiter-Glo luminescence; read-out: Inhibition of Cancerous Cells IC50 SW48 (wt)
Procedure, shortened: as §1

[3] = test system: Lovo cells (G13D); experiment: Cell viability assay (CellTiter-Glo), Lovo cells; conditions: Homo sapiens, 72 h; Lovo cells, 3 days incubation, CellTiter-Glo luminescence; read-out: Inhibition of Cancerous Cells IC50 Lovo (G13D)
Procedure, shortened: as §1

[4] = test system: H358 cells (G12C); experiment: Cell viability assay (CellTiter-Glo), H358 cells; conditions: Homo sapiens, NCI-H358, 72 h; H358 cells, 3 days incubation, CellTiter-Glo luminescence; read-out: Inhibition of Cancerous Cells IC50 H358 (G12C)
Procedure, shortened: as §1

Row | IC50 [1] | IC50 [2] | IC50 [3] | IC50 [4] | Structure (SMILES)
1 | 1.3 µM | 7.9 µM | 6.4 µM | 1.6 µM | COc1cc2c(N[C@H](C)c3cccc(Br)c3)nc(C)nc2cc1OCCCCCCC(=O)N[C@H](C(=O)N1C[C@H](O)C[C@H]1C(=O)NCc1ccc(-c2scnc2C)cc1)C(C)(C)C [Compound D1, (2S,4R)-1-((S)-2-(7-((4-(((R)-1-(3-Bromophenyl)ethyl)amino)-6-methoxy-2-methylquinazolin-7-yl)oxy)heptanamido)-3,3-dimethylbutanoyl)-4-hydroxy-N-(4-(4-methyl-thiazol-5-yl)benzyl)pyrrolidine-2-carboxamide]
2 | > 10 µM | > 10 µM | > 10 µM | > 10 µM | COc1cc2c(N[C@H](C)c3cccc(Br)c3)nc(C)nc2cc1OCCCCCCCCCCC(=O)N[C@H](C(=O)N1C[C@H](O)C[C@H]1C(=O)NCc1ccc(-c2scnc2C)cc1)C(C)(C)C [Compound D3, (2S,4R)-1-((S)-2-(11-((4-(((R)-1-(3-Bromophenyl)ethyl)amino)-6-methoxy-2-methylquinazolin-7-yl)oxy)undecanamido)-3,3-dimethylbutanoyl)-4-hydroxy-N-(4-(4-methyl-thiazol-5-yl)benzyl)pyrrolidine-2-carboxamide]
3 | 2.7 µM | > 10 µM | > 10 µM | > 10 µM | COc1cc2c(N[C@H](C)c3cccc(Br)c3)nc(C)nc2cc1OCCCCCCCCCCCCC(=O)N[C@H](C(=O)N1C[C@H](O)C[C@H]1C(=O)NCc1ccc(-c2scnc2C)cc1)C(C)(C)C [Compound D4, (2S,4R)-1-((S)-2-(13-((4-(((R)-1-(3-Bromophenyl)ethyl)amino)-6-methoxy-2-methylquinazolin-7-yl)oxy)tridecanamido)-3,3-dimethylbutanoyl)-4-hydroxy-N-(4-(4-methylthiazol-5-yl)benzyl)pyrrolidine-2-carboxamide]
4 | 3.5 µM | 5.4 µM | 3.1 µM | 4.3 µM | COc1cc2c(N[C@H](C)c3cccc(Br)c3)nc(C)nc2cc1OCCCCCCCCCOc1cc(-c2scnc2C)ccc1CNC(=O)[C@@H]1C[C@@H](O)CN1C(=O)[C@@H](NC(C)=O)C(C)(C)C [Compound D12, (2S,4R)-1-((S)-2-acetamido-3,3-dimethylbutanoyl)-N-(2-((9-((4-(((R)-1-(3-bromophenyl)ethyl)amino)-6-methoxy-2-methylquinazolin-7-yl)oxy)nonyl)oxy)-4-(4-methylthiazol-5-yl)benzyl)-4-hydroxypyrrolidine-2-carboxamide]
5 | 2.9 µM | > 10 µM | 1.6 µM | > 10 µM | COc1cc2c(N[C@H](C)c3cccc(Br)c3)nc(C)nc2cc1OCCCCCCCCCCCOc1cc(-c2scnc2C)ccc1CNC(=O)[C@@H]1C[C@@H](O)CN1C(=O)[C@@H](NC(C)=O)C(C)(C)C [Compound D13, (2S,4R)-1-((S)-2-Acetamido-3,3-dimethylbutanoyl)-N-(2-((11-((4-(((R)-1-(3-bromophenyl)ethyl)amino)-6-methoxy-2-methylquinazolin-7-yl)oxy)undecyl)oxy)-4-(4-methylthiazol-5-yl)benzyl)-4-hydroxypyrrolidine-2-carboxamide]
